Results published in article PMC3914656 (Journal of cancer science & therapy, 2013).
Structures can show the parent of a compound that is named as a salt.

Legend:
[1] = Rat in-situ single-pass colon perfusion, effective permeability coefficient; conditions: N-Nitroso N-methyl urea induced colon cancer, Figure 3
[2] = Stability in perfusion solution; type: physicochemical; conditions: Phosphate Buffer Saline pH 7.4 with phenol red, room temperature, 6 hrs, RP-HPLC
p-gp = assay: qRT-PCR gene expression of p-gp in treated Caco-2 cells; type: cell-based; conditions: for expression of p-gp (qRT-PCR): Caco-2 cells, 24-hrs treatment, actin as control

SMILES	permeability coefficient in cancerous colon in comparison to normal colon [1]	stability in perfusion samples [2]	expression of p-gp (qRT-PCR) (p-gp)	decrease in the expression of p-glycoprotein (P-gp) (p-gp; qRT-PCR and Western blot, curcumin treated colon cancer cells)
CCc1c2c(nc3ccc(OC(=O)N4CCC(N5CCCCC5)CC4)cc13)-c1cc3c(c(=O)n1C2)COC(=O)[C@]3(O)CC [Irinotecan, Irinotecan Hydrochloride]	decreased	stable	increased	–
COc1cc(/C=C/C(=O)CC(=O)/C=C/c2ccc(O)c(OC)c2)ccc1O [curcumin]	–	–	significant inhibition	about 15 fold
CC(C)NCC(O)COc1cccc2ccccc12 (stereo not drawn) [propranolol]	–	stable	–	–
